From PMC2682197, “Mycobacterium tuberculosis Universal Stress Protein Rv2623 Regulates Bacillary Growth by ATP-Binding: Requirement for Establishing Chronic Persistent Infection” (PLoS Pathogens, 2009)

Biological target: Rv2623 (Mycobacterium tuberculosis, UniProt P9WFD7)
Sequence (P9WFD7 whole entry): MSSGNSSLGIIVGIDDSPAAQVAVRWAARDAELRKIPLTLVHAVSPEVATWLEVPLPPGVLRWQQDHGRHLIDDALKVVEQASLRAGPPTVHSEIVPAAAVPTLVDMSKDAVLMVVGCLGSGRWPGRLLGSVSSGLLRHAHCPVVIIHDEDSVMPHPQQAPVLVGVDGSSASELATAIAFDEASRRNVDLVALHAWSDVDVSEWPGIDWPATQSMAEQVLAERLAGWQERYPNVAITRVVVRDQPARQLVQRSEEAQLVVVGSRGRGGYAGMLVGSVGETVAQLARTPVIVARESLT

Nc1ncnc2c1ncn2[C@@H]1O[C@H](COP(=O)(O)OP(=O)(O)O)[C@@H](O)[C@H]1O [ADP]
HPLC of nucleotide extracted from purified protein by boiling: His6-Rv2623 co-purifies with both ATP and ADP
